{
  "source": "patent EP0647627A1",
  "about": "“1,2-Dihydro-2-oxo-3-methylsulfonylaminomethyl-pyridines as angiotensin II antagonists” (MERCK PATENT GmbH, priority 1993, dated 1995)",
  "data": [
    {"assay": "Angiotensin II antagonism at the rat adrenal gland, IC50 (method of A.T. Chiu et al., J. Pharmacol. Exp. Therap. 250, 867-874 (1989))", "type": "binding, Ratten", "settings": "an der Rattennebenniere; Iy and Iz tested as K-Salze; read-out: IC 50-Werte", "text": "Diese Wirkungen können nach üblichen in vitro- oder in vivo-Methoden ermittelt werden, wie sie z.B. in der US-PS 4 880 804, der US-PS 5 036 048 und der WO 91/14367 beschrieben sind, ferner von A.T. Chiu et al., J. Pharmacol. Exp. Therap. 250, 867-874 (1989), und von P.C. Wong et al., ibid. 252, 719-725 (1990; in vivo, an Ratten).\nSo zeigten die K-Salze von 1,2-Dihydro-1-(2'-(1H-5-tetrazolyl)-biphenylyl-4-methyl)-2-oxo-3-N-methyl- bzw. -3-N-isopropyl-N-methylsulfonylaminomethyl-6-butyl-pyridin (\"Iy\" bzw. \"Iz\") an der Rattennebenniere (Versuchsmethodik vgl. A.T.Chiu et al., l.c.) IC 50-Werte von 1,15 bzw. 1,9 nM.l-¹, wahrend das bekannte 1,2-Dihydro-1-(2'-(1H-5-tetrazolyl)biphenylyl-4-methyl)-2-oxo-3-methylsulfonylaminomethyl-6-butyl-pyridin (vgl. EP 0 530 702 A1, Beispiel 22) im gleichen Test einen IC 50-Wert von 4,0 nM · l⁻¹ aufwies.", "units": {"IC50": "nM"}, "values": [
      {"molecule": "CCCCc1ccc(CN(C(C)C)S(C)(=O)=O)c(=O)n1Cc1ccc(-c2ccccc2-c2nn[nH]n2)cc1", "note": "[Iz, 1,2-Dihydro-1-(2'-(1H-5-tetrazolyl)-biphenylyl-4-methyl)-2-oxo-3-N-isopropyl-N-methylsulfonyl-aminomethyl-6-butyl-pyridin]", "IC50": 1.9},
      {"molecule": "CCCCc1ccc(CNS(C)(=O)=O)c(=O)n1Cc1ccc(-c2ccccc2-c2nn[nH]n2)cc1", "note": "[EP 0 530 702 A1, Beispiel 22, 1,2-Dihydro-1-(2'-(1H-5-tetrazolyl)biphenylyl-4-methyl)-2-oxo-3-methylsulfonylaminomethyl-6-butyl-pyridin, reference compound]", "IC50": 4},
      {"molecule": "CCCCc1ccc(CN(C)S(C)(=O)=O)c(=O)n1Cc1ccc(-c2ccccc2-c2nn[nH]n2)cc1", "note": "[Iy, 1,2-Dihydro-1-(2'-(1H-5-tetrazolyl)-biphenylyl-4-methyl)-2-oxo-3-N-methyl-N-methylsulfonyl-aminomethyl-6-butyl-pyridin]", "IC50": 1.15}
    ]}
  ]
}
